Measurements taken from patent US20230399341A1, “7-PHENYL SUBSTITUTED 2-AMINOQUINAZOLINE INHIBITORS OF HPK1” (MERCK SHARP & DOHME LLC, priority 2020, published 2023).

molecular target: T1, Human HPK1, catalytic domain (Homo sapiens, UniProt Q92918); experiment: HPK1-SLP76 TR-FRET Assay; type: biochemical; conditions: 75 pM HPK1, ATP 10 uM, SLP76 10 nM, 30 min pre-incubation, 60 min reaction
T1 sequence (Q92918 1-346): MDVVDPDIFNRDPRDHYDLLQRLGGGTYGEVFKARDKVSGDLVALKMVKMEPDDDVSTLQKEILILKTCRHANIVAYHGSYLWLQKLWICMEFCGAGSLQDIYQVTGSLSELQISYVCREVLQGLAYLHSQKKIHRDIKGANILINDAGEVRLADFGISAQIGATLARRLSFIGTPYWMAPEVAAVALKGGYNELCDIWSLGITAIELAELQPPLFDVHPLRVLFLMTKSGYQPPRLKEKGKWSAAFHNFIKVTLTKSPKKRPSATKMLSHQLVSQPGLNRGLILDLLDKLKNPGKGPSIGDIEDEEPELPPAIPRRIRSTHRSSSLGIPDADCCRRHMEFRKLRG

Structure (SMILES)	IC50 [nM]
COc1cc2c(cc1Nc1ncc3ccc(-c4cccnc4)cc3n1)CNCC2 [Compound 1-40, N-(6-methoxy-1,2,3,4-tetrahydroisoquinolin-7-yl)-7-(pyridin-3-yl)quinazolin-2-amine]	8.94
Cc1c(-c2cc3nc(Nc4ccc(C(C)S(C)(=O)=O)cc4)ncc3cc2F)cnc2c1NCCO2 (single isomer, unassigned) [Compound 1-126, (R of S)-6-fluoro-7-(8-methyl-2,3-dihydro-1H-pyrido[2,3-b][1,4]oxazin-7-yl)-N-{4-[1-(methylsulfonyl)ethyl]phenyl} quinazolin-2-amine]	0.68
CCS(=O)(=O)Cc1ccc(Nc2ncc3cc(F)c(-c4cnc5c(c4C)NCCO5)cc3n2)cc1 [Compound 1-134, N-{4-[(ethylsulfonyl)methyl]phe-nyl}-6-fluoro-7-(8-methyl-2,3-dihydro-1H-pyrido[2,3-b][1,4]oxazin-7-yl)quinazolin-2-amine]	0.0425
CCn1cc(-c2ccc3cnc(Nc4cc5c(cc4OC)CCN(C)C5)nc3c2)cn1 [Compound 1-20, 7-(1-ethyl-1H-pyrazol-4-yl)-N-(6-methoxy-2-methyl-1,2,3,4-tetrahydroisoquinolin-7-yl)quinazolin-2-amine]	4.61
COc1cc2c(cc1Nc1ncc3ccc(-c4cncc(C#N)c4)cc3n1)CNCC2 [Compound 1-36, 5-{2-[(6-methoxy-1,2,3,4-tetrahydroisoquinolin-7-yl)amino]quinazolin-7-yl}pyridine-3-carbonitrile]	182
COc1cc2c(cc1Nc1ncc3ccc(-c4ccc5c(c4)C(=O)N(CC4CC4)C5)cc3n1)CNCC2 [Compound 1-68, 2-(cyclopropylmethyl)-6-{2-[(6-methoxy-1,2,3,4-tetrahydroisoquinolin-7-yl)amino]quinazolin-7-yl}-2,3-dihydro-1H-isoindol-1-one]	161
COc1cc2c(cc1Nc1ncc3ccc(-c4cncc(N5CCOCC5)c4)cc3n1)CNCC2 [Compound 1-42, N-(6-methoxy-1,2,3,4-tetrahydroisoquinolin-7-yl)-7-[5-(morpholin-4-yl)pyridin-3-yl]quinazolin-2-amine]	38.5
COc1cc2c(cc1Nc1ncc3ccc(-c4cccc(C(=O)N5CCCC5)c4)cc3n1)CNCC2 [Compound 1-86, (3-{2-[(6-methoxy-1,2,3,4-tetrahydroisoquinolin-7-yl)amino]quinazolin-7-yl}phenyl)(pyrrolidin-1-yl)methanone]	44.1
CCC(=O)Nc1cncc(-c2ccc3cnc(Nc4cc5c(cc4OC)CCNC5)nc3c2)c1 [Compound 1-52, N-(5-{2-[(6-methoxy-1,2,3,4-tetrahydroisoquinolin-7-yl)amino]quinazolin-7-yl}pyridin-3-yl)propanamide]	11
COc1cc2c(cc1Nc1ncc3ccc(-c4c[nH]nc4C)cc3n1)CN(C)CC2 [Compound 1-105, N-(6-methoxy-2-methyl-1,2,3,4-tetrahydroisoquinolin-7-yl)-7-(3-methyl-1H-pyrazol-4-yl)quinazolin-2-amine]	196
COc1cc2c(cc1Nc1ncc3ccc(-c4cncc(CN)c4)cc3n1)CNCC2 [Compound 1-49, 7-[5-(aminomethyl)pyridin-3-yl]-N-(6-methoxy-1,2,3,4-tetrahydroisoquinolin-7-yl)quinazolin-2-amine]	3.25

Further lines, results first:

IC50 [nM]	Structure (SMILES)
0.129	Cc1c(-c2cc3nc(Nc4cccnc4)ncc3c(N)c2F)cnc2c1NCCO2 [Compound 2-9, 6-fluoro-7-(8-methyl-2,3-dihydro-1H-pyrido[2,3-b][1,4]oxazin-7-yl)-N~2~- (pyridin-3-yl)quinazoline-2,5-diamine]
0.0528	Cc1c(-c2c(F)c(N)c3cnc(Nc4ccc5c(c4)CN(C)CC54CC4)nc3c2C#N)cnc2c1NCCO2 [Compound 2-109, (+ or −)-5-amino-6-fluoro-2-((2′-methyl-2′,3′-dihydro-1′H-spiro[cyclopropane-1,4′-isoquinolin]-7′-yl)amino)-7-(8-methyl-2,3-dihydro-1H-pyrido[2,3-b][1,4]oxazin-7-yl)quinazoline-8-carbonitrile]
0.101	Cc1c(-c2cc3nc(Nc4ccc(CS(=O)(=O)C5CC5)cc4)ncc3c(N)c2F)cnc2c1NCCO2 [Compound 2-136]
46.8	COc1cc2c(cc1Nc1ncc3ccc(NCc4ccc5c(c4)S(=O)(=O)N=C(C)N5)cc3n1)CN(C)CC2 [Compound 3-25, 7-[({2-[(6-methoxy-2-methyl-1,2,3,4-tetrahydroisoquinolin-7-yl)amino]quinazolin-7-yl}-amino)methyl]-3-methyl-1lambda~6~,2,4-benzothia-diazine-1,1(4H)-dione]
0.905	COc1cc(C2CCN(C)C2=O)ccc1Nc1ncc2c(N)c(F)c(-c3cnc4c(c3C)NCCO4)cc2n1 (single isomer, unassigned) [Compound 2-57, (R or S)-3-(4-{[5-amino-6-fluoro-7-(8-methyl-2,3-dihydro-1H-pyrido[2,3-b][1,4]oxazin-7-ylquinazolin-2-yl]amino}-3-methoxyphenyl)-1-methylpyrrolidin-2-one]
0.0382	Cc1c(-c2cc3nc(Nc4ccc5c(c4)CN(C)C(C)C5)ncc3c(N)c2F)cnc2c1NCCO2 (single isomer, unassigned) [Compound 2-86, (R or S)—N2-(2,3-dimethyl-1,2,3,4-tetrahydroisoquinolin-7-yl)-6-fluoro-7-(8-methyl-2,3-dihydro-1H-pyrido[2,3-b][1,4]oxazin-7-yl)quinazoline-2,5-diamine]
0.0508	Cc1c(-c2cc3nc(Nc4ccc5c(c4)CN(C)CC5)ncc3c(N)c2F)cnc2c1NCCO2 [Compound 2-70, 6-fluoro-7-(8-methyl-2,3-dihydro-1H-pyrido[2,3-b][1,4]oxazin-7-yl)-N˜2˜-(2-methyl-1,2,3,4-tetrahydroisoquinolin-7-yl)quinazoline-2,5-diamine]
0.0757	COc1cc2c(cc1Nc1ncc3c(N)cc(N4C(=O)OC[C@@H]4C)cc3n1)CN(C)CC2 [Compound 3-17, (S)-3-{5-amino-2-[(6-methoxy-2-methyl-1,2,3,4-tetrahydroiso-quinolin-7-yl)amino]quinazolin-7-yl}-4-methyl-1,3-oxazolidin-2-one]
2.19	COc1cc2c(cc1Nc1ncc3c(N)cc(Oc4ccc5c(c4)CCNC5)cc3n1)CN(C)CC2 [Compound 4-9, N2-(6-Methoxy-2-methyl-1,2,3,4-tetrahydroisoquinolin-7-yl)-7-((1,2,3,4-tetrahydroisoquinolin-6-yl)oxy)quinazoline-2,5-diamine]
0.889	COc1cc2c(cc1Nc1ncc3ccc(Nc4cc(CO)ccn4)cc3n1)CN(C)CC2 [Compound 3-40, [2-({2-[(6-methoxy-2-methyl-1,2,3,4-tetrahydroisoquinolin-7-yl)amino]quinazolin-7-yl}-amino)pyridin-4-yl]methanol]
474	COc1cc2c(cc1Nc1ncc3c(N)c(F)c(-c4cc(C#N)ccc4C)cc3n1)CN(C)CC2 [Compound 2-51, 3-(5-amino-6-fluoro-2-((6-methoxy-2-methyl-1,2,3,4-tetrahydroisoquinolin-7-yl)amino)quinazolin-7-yl)-4-methylbenzonitrile]
0.0614	Cc1c(-c2cc3nc(Nc4ccc5c(c4)CN(C)CC5(C)C)ncc3c(N)c2F)cnc2c1NCCO2 [Compound 2-150, 6-fluoro-7-(8-methyl-2,3-dihydro-1H-pyrido[2,3-b][1,4]oxazin-7-yl)-N~2~- (2,4,4-trimethyl-1,2,3,4-tetrahydroisoquinolin-7-yl)quinazoline-2,5-diamine]
0.0337	Cc1c(-c2cc3nc(Nc4ccc5c(c4)CN(C)C(C)(C)C5)ncc3c(N)c2F)cnc2c1NCCO2 (single isomer, unassigned) [Compound 2-128, 6-fluoro-7-(8-methyl-2,3-dihydro-1H-pyrido[2,3-b][1,4]oxazin-7-yl)-N2-(2,3,3-trimethyl-1,2,3,4-tetrahydroisoquinolin-7-yl)quinazoline-2,5-diamine]
12.7	COc1cc(CS(C)(=O)=O)ccc1Nc1ncc2c(N)c(F)c(-c3cnc4c(c3C)NCCO4)c(Cl)c2n1 (single isomer, unassigned) [Compound 2-99, (+ or −)-8-chloro-6-fluoro-N~2~-{2-methoxy-4-[(methylsulfonyl)methyl]phenyl}-7-(8-methyl-2,3-dihydro-1H-pyrido[2,3-b][1,4]oxazin-7-yl)quinazoline-2,5-diamine]
0.0647	Cc1c(-c2cc3nc(Nc4ccc(CS(C)(=O)=O)cc4F)ncc3c(N)c2F)cnc2c1NCCO2 [Compound 2-155, 6-fluoro-N~2~-{2-fluoro-4-[(methylsulfonyl)methyl]phenyl}-7-(8-methyl-2,3-dihydro-1H-pyrido[2,3-b][1,4]oxazin-7-yl)quinazoline-2,5-diamine]
0.142	Cc1c(-c2cc3nc(Nc4ccc(CCC#N)cc4)ncc3c(N)c2F)cnc2c1NCCO2 [Compound 2-116, 3-(4-{[5-amino-6-fluoro-7-(8-methyl-2,3-dihydro-1H-pyrido[2,3-b][1,4]oxazin-7-yl)quinazolin-2-yl]amino}phenyl)propane-nitrile]
91.7	COc1cc2c(cc1Nc1ncc3ccc(NCC(=O)N(C)C)cc3n1)CN(C)CC2 [Compound 3-71, N~2~-{2-[(6-methoxy-2-meth-yl-1,2,3,4-tetrahydroisoquinolin-7-yl)amino]quinazolin-7-yl}-N,N-dimethylglycinamide]
165	COc1cc2c(cc1Nc1ncc3ccc([C@H]4CC[C@H](CN)CC4)cc3n1)CN(C)CC2 [Compound 5-2, 7-((1r,4r)-4-(aminomethyl)-cyclohexyl)-N-(6-methoxy-2-methyl-1,2,3,4-tetrahydroiso-quinolin-7-yl)quinazolin-2-amine]
